From patent publication US20250213594A1 (priority 2023, published 2025)

Assays:
[1] = format: in vivo, human; conditions: 1 mg QD oral 28 days, n = 10
Procedure: The study in the present disclosure was conducted in accordance with Therapeutic Goods Administration and Human Research Ethics Committee guidelines. The study was conducted at the Phase 1 Unit of Nucleus Network Pty Ltd in Brisbane, Australia from October 2021 to March 2022. The entire study was conducted in accordance with the provisions of the Declaration of Helsinki and Good Clinical Practice guidelines, and the protocol was registered at www.clinicaltrials.gov (NCT04945226; registration date: Jun. 30, 2021). Healthy men aged 18 to 55 years with a body mass index (BMI) of 18 to 32 kg/m^2 participated in this study. Potential subjects completed a signed informed consent form and were subjected to screening prior to the study. A total of 40 healthy, non-smoking adult men were included in the study across three cohorts (FIG. 1).
Each subject was followed up until day 43. In contrast, cohort 2 was divided into two groups.
Cohort 2 was divided into two groups. […]
The clinical status and vital signs of the subjects were evaluated before and after participation in the study to investigate adverse effects. Hematological parameters such as white blood cell, red blood cell, hemoglobin, hematocrit, and platelet counts were analyzed. Adverse effects (AEs) were recorded in terms of symptoms and signs, duration, intensity, relationship to study drug, action taken, outcome, and seriousness. […]

DHT = assay: Phase 1 clinical study: plasma DHT as pharmacodynamic marker; format: in vivo, human
[2] = design: species or system human; conditions: model estimate
Procedure: PK and PD modeling were performed to determine the therapeutic dose in AGA. A two-compartment PK model using observed clinical study data was adopted. […] The effective dose for additional clinical studies was estimated using established PK/PD models. All PK/PD modeling and simulations were performed using Phoenix WinNonlin, v.8.3.

[3] = male, human, in vivo, po, 1 mg
Procedure: (§1) A total of 40 non-smoking, healthy adult males were recruited for this study. Subjects who passed the screening process and were deemed eligible for the study were assigned to three groups. […] Each subject was followed up until day 43. In contrast, cohort 2 was divided into two groups. […] The subjects returned to the hospital according to a pre-determined schedule for 43 or 35 days and were assessed for tolerability, PK, and PD. […] In this study, the plasma drug concentration was analyzed on day 28 to investigate the comparative effect.
(§2) Whole blood was collected and centrifuged to obtain plasma. […] Maximum plasma concentration (Cmax), time to reach Cmax (Tmax), areas under the curve for 24 and 672 hours after dosing (AUC0-24, and AUC0-672), areas under the curve from time 0 to the last quantified concentration and to infinity (AUC0-t, and AUC0-inf), total plasma clearance, apparent total volume of distribution based on steady state or terminal phase, and elimination half-life were assessed.
(§3) PK analysis was based on a non-compartmental analysis approach and was performed in the PK population (patients who received at least one dose and had evaluable PK data). PK parameters were calculated using plasma concentrations and actual blood sampling times using Phoenix WinNonlin v. 8.3 (Certara, Princeton, NJ, USA) and summarized.

[4] = 1 mg finasteride tablets, previous clinical studies; cited from earlier work
clinical = conditions: male, human, in vivo, po
Procedure: as §1, §2, §3

CC(C)(C)NC(=O)[C@H]1CC[C@H]2[C@@H]3CC[C@H]4NC(=O)C=C[C@]4(C)[C@H]3CC[C@]12C [Finasteride]
COVID-19 [1]: 0 n (%)
baseline-corrected median DHT values (%) at all time points (DHT; 1 mg oral QD 28 days): −74.04 to 3.58%
effect on DHT (DHT; all concentrations of IVL3001, oral 1 mg tablets): inhibitory effect
tvCL2 (clearance between central compartment and peripheral compartment) [2]: 18.9 L/h
tvCL (clearance from central compartment) [2]: 18.4 L/h
mean elimination half-life (t1/2el) [3]: 6.9 h
bioavailability [4]: about 65%
half-life (clinical; 1 mg, mean elimination half-life (t1/2el)): 6.4 h
half-life (clinical; in vivo mean half-life): ~6.4 h
